20 compounds from patent US8044053B2, “Sulfonamide substituted pyrazoline compounds, their preparation and use as CB1 modulators” (Laboratories del Dr. Esteve, S.A., priority 2006, dated 2011) can be followed below.

The assay deals with CB1-receptor (UniProt P20272). Description: In-vitro determination of affinity (binding) to CB1-receptors, radioligand [3H]-CP55940. On the set-up: IC50; Ki; species or system human or rat. To be noted: Pharmacological Methods Part I. As to the method: I. In-Vitro Determination of Affinity to CB1/CB2-Receptors
The in-vitro determination of the affinity of the inventive substituted pyrazoline compounds to CB1/CB2-Rezeptors is carried out as described in the publication of Ruth A. Ross, Heather C. Brockie et al., “Agonist-inverse agonist characterisation at CB1 and CB2 cannabinoid receptors of L-759633, L759656 and AM630”, British Journal of Pharmacology, 126, 665-672, (1999), whereby the transfected human CB1 and CB2 receptors of Receptor Biology, Inc. are used. The radioligand used for both receptors is [^3H]-CP55940. The respective parts of the description is hereby incorporated by reference and forms part of the present disclosure.
Rat Cerebellum CB1 Binding
Binding affinity to CB1 receptor was evaluated according to a modification of the method described by Govaerts et al., Eur J Pharmac Sci 23, 233-243 (2004). The respective parts of the description is hereby incorporated by reference and forms part of the present disclosure.
Briefly, cerebellum from male wistar rats (250-300 g) were carefully dissected on ice and homogenates were prepared with Potter-Helveheim in a cold 50 mM Tris-HCl solution containing 5 mM MgCl2, 1 mM EDTA and 0.25 M sucrose, pH 7.4. The suspension was centrifuged at 1,000×g for 5 minutes. The supernatants were collected and centrifuged 50,000×g for 15 minutes. The resulting pellets were then resuspended in Tris-HCl buffer without sucrose, homogenised and incubated for 15 min at 37° C. in an orbital shaker bath and centrifuged again at 50,000×g for 15 min. Pellets were weighted, resuspended in Tris-HCl buffer without sucrose, homogenised with Ultraturrax at 13,500 rpm for 3×5 seconds and alicuoted in 0.9 ml volumes in Eppendorf tubes. Alicuotes were centrifuged at 20,800×g for 5 minutes, supernatants discarded and pellets were frozen at −80° C. until use. Total protein concentration was determined using the Bio-Rad Lowry method based kit. Competitive binding experiments were performed in presence of 1 nM [^3H]-CP 55,940 in siliconised glass tubes containing 100 μg protein/tube resuspended in 1 ml final volume of 50 mM Tris-HCl, 5 mM MgCl2, 1 mM EDTA, 0.5% (w/v) bovine serum albumin, pH 7.4. Compounds were present at various concentrations and the non specific binding was determined in the presence of 10 μM HU-210. After 1 hour incubation at 30° C., the suspension was rapidly filtered through 0.5% PEI pre-treated GF/B fiber filters on a 96-well harvester and washed 3 times with 3 ml ice-cold binding buffer without bovine serum albumin. Radioactivity on filters was measured with Wallac Winspectral 1414 counter by liquid scintillation in 6 ml Ecoscint H (National Diagnostics, U.K.). Assays were made in triplicates.
Binding data were analysed by non-linear regression with the software GraphPad Prism Version 3.03.
The binding of the pyrazoline compounds of general formulae I, Ia and Ib to CB1-receptors was determined according to the method described in the section Pharmacological Methods, Part I.

As for `Cc1ccc(C)c(S(=O)(=O)NCC2=NN(c3ccc(Cl)cc3Cl)C(c3ccc(Br)cc3)C2)c1` (stereo not shown) [Example 280, N-[5-(4-Bromo-phenyl)-1-(2,4-dichloro-phenyl)-4,5-dihydro-1H-pyrazol-3-ylmethyl]-2,5-dimethyl-benzenesulfonamide], the IC50 worked out at 42 nM and the Ki came to 17.5 nM.

For `Cc1ccc(F)cc1S(=O)(=O)NCC1=NN(c2ccc(Cl)cc2Cl)C(c2ccc(Br)cc2)C1` (stereo not shown) [Example 277, N-[5-(4-Bromo-phenyl)-1-(2,4-dichloro-phenyl)-4,5-dihydro-1H-pyrazol-3-ylmethyl]-5-fluoro-2-methyl-benzenesulfonamide], the IC50 is 43 nM and affinity was put at a Ki of 18.2 nM.

In the case of `CCOc1ccc(C2CC(CNS(=O)(=O)c3cc(Cl)ccc3F)=NN2c2ccc(Cl)cc2Cl)cc1` (stereo not shown) [Example 100, 5-Chloro-N-[1-(2,4-dichloro-phenyl)-5-(4-ethoxy-phenyl)-4,5-dihydro-1H-pyrazol-3-ylmethyl]-2-fluoro-benzenesulfonamide], the half-inhibitory concentration (IC50) was determined as 30.8 nM and the Ki came out at 12.8 nM.

`Cc1ccc(F)cc1S(=O)(=O)NCC1=NN(c2ccc(Cl)cc2Cl)[C@@H](c2ccc(Cl)cc2)[C@H]1C` [Example 74, (4R,5R)-N-[5-(4-Chloro-phenyl)-1-(2,4-dichloro-phenyl)-4-methyl-4,5-dihydro-1H-pyrazol-3-ylmethyl]-5-fluoro-2-methyl-benzenesulfonamide] gave an IC50 of 11 nM and an inhibition constant (Ki) of 5.1 nM.

In the case of `CCOc1ccc(C2CC(CNS(=O)(=O)c3cc(C(F)(F)F)ccc3Cl)=NN2c2ccc(Cl)cc2Cl)cc1` (stereo not shown) [Example 101, 2-Chloro-N-[1-(2,4-dichloro-phenyl)-5-(4-ethoxy-phenyl)-4,5-dihydro-1H-pyrazol-3-ylmethyl]-5-trifluoromethyl-benzenesulfonamide], the IC50 came out at 12.8 nM and the Ki worked out at 5.6 nM.

With `CCOc1ccc(C2CC(CNS(=O)(=O)c3cccc(Cl)c3Cl)=NN2c2ccc(Cl)cc2Cl)cc1` (stereo not shown) [Example 248, 2,3-Dichloro-N-[1-(2,4-dichloro-phenyl)-5-(4-ethoxy-phenyl)-4,5-dihydro-1H-pyrazol-3-ylmethyl]-benzenesulfonamide], the 50% inhibitory concentration (IC50) was 17.9 nM and the Ki worked out at 7.6 nM.

As to `CCOc1ccc(C2CC(CNS(=O)(=O)c3c(C)cc(C)cc3C)=NN2c2ccc(Cl)cc2Cl)cc1` (stereo not shown) [Example 272, N-[1-(2,4-Dichloro-phenyl)-5-(4-ethoxy-phenyl)-4,5-dihydro-1H-pyrazol-3-ylmethyl]-2,4,6-trimethyl-benzenesulfonamide], the IC50 amounted to 13.4 nM and the Ki is 5.7 nM.

Consider `O=S(=O)(NCC1=NN(c2ccc(Cl)cc2Cl)C(c2ccc(Cl)cc2)C1)c1ccccc1Br` (stereo not shown) [Example 136, 2-Bromo-N-[5-(4-chloro-phenyl)-1-(2,4-dichloro-phenyl)-4,5-dihydro-1H-pyrazol-3-ylmethyl]-benzenesulfonamide], for which the concentration for half-maximal inhibition (IC50) came to 40 nM and the Ki was 16.9 nM.

In turn, `CCOc1ccc(C2CC(CNS(=O)(=O)c3cccc(C#N)c3)=NN2c2ccc(Cl)cc2Cl)cc1` (stereo not shown) [Example 271, 3-Cyano-N-[1-(2,4-dichloro-phenyl)-5-(4-ethoxy-phenyl)-4,5-dihydro-1H-pyrazol-3-ylmethyl]-benzenesulfonamide] returned an IC50 of 10.2 nM and a Ki of 4.4 nM.

`COc1ccc(C2CC(CNS(=O)(=O)c3cccc(OC)c3)=NN2c2ccc(Cl)cc2Cl)cc1` (stereo not shown) [Example 221, N-[1-(2,4-Dichloro-phenyl)-5-(4-methoxy-phenyl)-4,5-dihydro-1H-pyrazol-3-ylmethyl]-3-methoxy-benzenesulfonamide]: the concentration for half-maximal inhibition (IC50) was found to be 52.7 nM and affinity was put at a Ki of 23.5 nM.

Compound `O=S(=O)(NCC1=NN(c2ccc(Cl)cc2Cl)[C@@H](c2ccc(Cl)cc2)C1)c1ccccc1` [Example 194, (R)-N-[5-(4-Chloro-phenyl)-1-(2,4-dichloro-phenyl)-4,5-dihydro-1H-pyrazol-3-ylmethyl]-benzenesulfonamide] registered a 50% inhibitory concentration (IC50) of 88.9 nM and an inhibition constant (Ki) of 38.3 nM.

Take `CCOc1ccc(C2CC(CNS(=O)(=O)c3ccccc3F)=NN2c2ccc(Cl)cc2Cl)cc1` (stereo not shown) [Example 98, N-[1-(2,4-Dichloro-phenyl)-5-(4-ethoxy-phenyl)-4,5-dihydro-1H-pyrazol-3-ylmethyl]-2-fluoro-benzenesulfonafonamide]: the IC50 is 47.1 nM and the Ki was 19.8 nM.

Take `O=S(=O)(NCC1=NN(c2ccc(Cl)cc2Cl)C(c2ccc(Cl)cc2)C1)c1cc(Cl)ccc1Cl` (stereo not shown) [Example 139, 2,5-Dichloro-N-[5-(4-chloro-phenyl)-1-(2,4-dichloro-phenyl)-4,5-dihydro-1H-pyrazol-3-ylmethyl]-benzenesulfonamide]: the IC50 turned out to be 16.5 nM and the Ki was determined as 7 nM.

`O=S(=O)(NCC1=NN(c2ccc(Cl)cc2Cl)[C@@H](c2ccc(Cl)cc2)C1)c1cc(Cl)ccc1F` [Example 106, (R)-5-Chloro-N-[5-(4-chloro-phenyl)-1-(2,4-dichloro-phenyl)-4,5-dihydro-1H-pyrazol-3-ylmethyl]-2-fluoro-benzenesulfonamide] showed an IC50 of 28.5 nM and a Ki of 11.9 nM.

As to `COc1ccc(C2CC(CNS(=O)(=O)c3cccc(Cl)c3)=NN2c2ccc(Cl)cc2Cl)cc1` (stereo not shown) [Example 225, 3-Chloro-N-[1-(2,4-dichloro-phenyl)-5-(4-methoxy-phenyl)-4,5-dihydro-1H-pyrazol-3-ylmethyl]-benzenesulfonamide], the IC50 came to 90.1 nM and the Ki was 39.7 nM.

The compound `CCOc1ccc(C2CC(CNS(=O)(=O)c3cc(F)ccc3C)=NN2c2ccc(Cl)cc2Cl)cc1` (stereo not shown) [Example 102, N-[1-(2,4-Dichloro-phenyl)-5-(4-ethoxy-phenyl)-4,5-dihydro-1H-pyrazol-3-ylmethyl]-5-fluoro-2-methyl-benzenesulfonamide] gave a concentration for half-maximal inhibition (IC50) of 7.2 nM and a Ki of 3 nM.

On to `Cc1ccc(F)cc1S(=O)(=O)NCC1=NN(c2ccc(Cl)cc2Cl)[C@@H](c2ccc(Cl)cc2)C1` [Example 63, (R)-N-[5-(4-Chloro-phenyl)-1-(2,4-dichloro-phenyl)-4,5-dihydro-1H-pyrazol-3-ylmethyl]-5-fluoro-2-methyl-benzenesulfonamide], for which the concentration for half-maximal inhibition (IC50) came to 50.4 nM and affinity was put at a Ki of 21 nM.

`Cc1ccc(C)c(S(=O)(=O)NCC2=NN(c3ccc(Cl)cc3Cl)[C@@H](c3ccc(Cl)cc3)[C@H]2C)c1` (racemic) [Example 83, cis-(4RS,5RS)-N-[5-(4-Chloro-phenyl)-1-(2,4-dichloro-phenyl)-4-methyl-4,5-dihydro-1H-pyrazol-3-ylmethyl]-2,5-dimethyl-benzenesulfonamide] came in with an IC50 of 50.5 nM and a Ki of 21.4 nM.

`COc1ccc(C2CC(CNS(=O)(=O)c3ccccc3Cl)=NN2c2ccc(Cl)cc2Cl)cc1` (stereo not shown) [Example 217, 2-Chloro-N-[1-(2,4-dichloro-phenyl)-5-(4-methoxy-phenyl)-4,5-dihydro-1H-pyrazol-3-ylmethyl]-benzenesulfonamide]: the 50% inhibitory concentration (IC50) turned out to be 69 nM and the affinity, expressed as Ki, was 30.8 nM.

`Cc1cc(S(=O)(=O)NCC2=NN(c3ccc(Cl)cc3Cl)[C@@H](c3ccc(Cl)cc3)C2)c(C)cc1Cl` [Example 67, (R)-4-Chloro-N-[5-(4-chloro-phenyl)-1-(2,4-dichloro-phenyl)-4,5-dihydro-1H-pyrazol-3-ylmethyl]-2,5-dimethyl-benzenesulfonamide]: the half-inhibitory concentration (IC50) is 91 nM and the Ki came out at 40.6 nM.
